What was measured:
[1] = tested on: P. gingivalis and ligature-induced experimental periodontitis; test: Morphometric analysis of mandibles in rabbit experimental periodontitis; type: in vivo, New Zealand White rabbits; details: topical resolvin E1 before P. gingivalis application, every other day for 6 weeks; versus vehicle (ethanol)
[2] = tested on: P. gingivalis and ligature-induced experimental periodontitis; test: Radiographic analysis (Bjorn technique) in rabbit experimental periodontitis; type: in vivo, New Zealand White rabbits
[3] = tested on: P. gingivalis and ligature-induced experimental periodontitis; test: Histological analysis (HE) in rabbit experimental periodontitis; type: in vivo, New Zealand White rabbits; details: topical application; rabbits with P. gingivalis and ligature placement
[4] = tested on: PGE2 generation from gingival homogenates; details: ElAttar et al. 1984; cited from earlier work
[5] = tested on: COX-derived eicosanoids in crevicular fluid; details: cited from earlier work
CF-PGE2 levels = details: in humans; cited from earlier work
[6] = p<0.05 for vehicle group compared to resolvin E1 or ligature alone

Compound: CC[C@@H](O)/C=C/C=C\C[C@@H](O)/C=C/C=C/C=C\[C@@H](O)CCCC(=O)O [resolvin E1]
- bone destruction (defleshed bone specimens, FIG. 1) [1]: prevented
- gingival inflammation (gingival tissue of mandibles, FIG. 1) [1]: prevented
- percentage of bone loss calculated by the Bjorn technique (FIG. 5) [2, 6]: prevents the destructive effects
- percentage of tooth in bone measured on radiographs (FIG. 4) [2, 6]: maintenance of bone levels
- bone loss, radiographic appearance of alveolar bone (FIG. 3) ([2]; topical application, bone at the same level as ligature alone): prevented the bone loss
- bone loss, histology (FIG. 6) [3]: prevented
- inflammatory changes, histology (FIG. 6) [3]: prevented

Compound: CC(C(=O)O)c1ccc(-c2ccccc2)c(F)c1 (centres unmarked) [flurbiprofen]
- PGE2 generation from gingival homogenates [4]: significantly inhibited
- CF-PGE2 levels, gingival inflammation, tooth attachment loss and bone loss ([5]; Pauletto et al. 1997, in some cases bone gain): reduced
- COX-derived eicosanoids in crevicular fluid (CF) ([5]; animals taking flurbiprofen): decreased
- CF-PGE2 levels (CF-PGE2 levels): dramatically decreased
